Biological target: T1, IRAK4 (Homo sapiens, UniProt Q9NWZ3)
T1 construct: knocking-in a HiBiT fusion tag into the C-terminal of the IRAK4 gene in 293T cells; host or cells: 293T cells, knock-in of HiBiT at the endogenous IRAK4 locus
T1 sequence (Q9NWZ3 1-460): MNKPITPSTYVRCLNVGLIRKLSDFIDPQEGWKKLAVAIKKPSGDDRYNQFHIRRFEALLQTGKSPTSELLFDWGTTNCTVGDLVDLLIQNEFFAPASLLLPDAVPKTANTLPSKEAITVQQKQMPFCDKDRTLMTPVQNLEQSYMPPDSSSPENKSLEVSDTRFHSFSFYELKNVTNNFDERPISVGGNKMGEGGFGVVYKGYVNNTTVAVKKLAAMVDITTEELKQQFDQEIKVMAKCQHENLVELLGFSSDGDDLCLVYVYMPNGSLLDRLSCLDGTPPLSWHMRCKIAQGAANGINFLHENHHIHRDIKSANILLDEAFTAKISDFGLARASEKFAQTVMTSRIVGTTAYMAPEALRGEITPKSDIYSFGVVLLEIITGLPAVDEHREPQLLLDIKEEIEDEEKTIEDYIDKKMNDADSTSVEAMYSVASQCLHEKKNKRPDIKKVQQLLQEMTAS
Assay: IRAK4 degradation assay using the HiBiT Method
Assay type: cell-based
Details: 293T cells expressing HiBiT-tagged IRAK4; 6-hour incubation; Nano-Glo HiBiT Lytic Assay luminescence
Description: Selected compounds were tested in an IRAK4 degradation assay using the HiBiT Method.
Phenol red-free Dulbecco's modified Eagle medium (DMEM) and fetal bovine serum (FBS) were purchased from Gibco (Grand Island, NY, USA). The Nano-Glo© HiBiT Lytic Assay System was purchased from Promega (Madison, WI, USA). Cell culture flasks and 384-well microplates were acquired from VWR (Radnor, PA, USA). The 293T cell line was engineered by knocking-in a HiBiT fusion tag into the C-terminal of the IRAK4 gene in 293T cells (Synthego, Redwood City, CA, USA).
IRAK4 degradation was measured via the quantification of luminescent signals using the Nano-Glo© HiBiT Lytic Assay kit. Test compounds were added to 384-well plates in duplicate using an 11-point half-log dilution series, with the highest dose set at 10 mM. 293T cells expressing HiBiT-tagged IRAK4 were then added into 384-well plates at a cell density of 10,000 cells per well. The plates were kept at 37° C. with 5% CO2 for 6 hours. Cells that were treated only with DMSO served as the negative control; wells that contained only assay media served as the background control. After the 6-hour incubation, Nano-Glo® HiBiT Lytic Assay reagents were added to the cells. Luminescence was acquired using an EnVision® Multilabel Reader (PerkinElmer, Santa Clara, CA, USA).

DC50 [nM] | SMILES
100 to 500 | CC(C)Oc1cc2nc([C@H]3CC[C@H](CN(C)C4CCN(c5cccc(C6CCC(=O)NC6=O)c5)CC4)CC3)cn2cc1NC(=O)c1cccc(C(F)(F)F)n1 (stereo partly drawn) [Example 43, N-[2-[4-[[[1-[3-(2,6-dioxo-3-piperidyl)phenyl]-4-piperidyl]-methyl-amino]methyl]cyclohexyl]-7-isopropoxy-imidazo[1,2-a]pyridin-6-yl]-6-(trifluoromethyl)pyridine-2-carboxamide]
10 to 100 | CC(C)Oc1cc2nc(C3CCN(CCc4ccc(NC5CCC(=O)NC5=O)cc4)CC3)cn2cc1NC(=O)c1cccc(C(F)(F)F)n1 (stereo not drawn) [Example 68, N-[2-[1-[2-[4-[(2,6-dioxo-3-piperidyl)amino]phenyl]ethyl]-4-piperidyl]-7-isopropoxy-imidazo[1,2-a]pyridin-6-yl]-6-(trifluoromethyl)pyridine-2-carboxamide]
100 to 500 | CC(C)Oc1cc2nc(C3CCN(CCN4CCC(c5ccc(CN6CCC(=O)NC6=O)cc5)CC4)CC3)cn2cc1NC(=O)c1cccc(C(F)(F)F)n1 [Example 62, N-[2-[1-[2-[4-[4-[(2,4-dioxohexahydropyrimidin-1-yl)methyl]phenyl]-1-piperidyl]ethyl]-4-piperidyl]-7-isopropoxy-imidazo[1,2-a]pyridin-6-yl]-6-(trifluoromethyl)pyridine-2-carboxamide]
10 to 100 | CC(C)Oc1cc2nc(C3CCN(CC(=O)N4CCC(c5cccc(NC6CCC(=O)NC6=O)c5)CC4)CC3)cn2cc1NC(=O)c1cccc(C(F)(F)F)n1 (stereo not drawn) [Example 17, N-[2-[1-[2-[4-[3-[(2,6-dioxo-3-piperidyl)amino]phenyl]-1-piperidyl]-2-oxo-ethyl]-4-piperidyl]-7-isopropoxy-imidazo[1,2-a]pyridin-6-yl]-6-(trifluoromethyl)pyridine-2-carboxamide]
500 to 1000 | CC(C)Oc1cc2nc(C3CCN(C(=O)C4CCN(C(=O)c5ccc(OC6CCC(=O)NC6=O)cc5)CC4)CC3)cn2cc1NC(=O)c1cccc(C(F)(F)F)n1 (stereo not drawn) [Example 84, N-[2-[1-[1-[4-[(2,6-dioxo-3-piperidyl)oxy]benzoyl]piperidine-4-carbonyl]-4-piperidyl]-7-isopropoxy-imidazo[1,2-a]pyridin-6-yl]-6-(trifluoromethyl)pyridine-2-carboxamide]
100 to 500 | CC(C)Oc1cc2nc([C@H]3CC[C@H](CN4CCC(c5cccc(NC6CCC(=O)NC6=O)c5)CC4)CC3)cn2cc1NC(=O)c1cccc(C(F)(F)F)n1 (stereo partly drawn) [Example 39, N-[2-[4-[[4-[3-[(2,6-dioxo-3-piperidyl)amino]phenyl]-1-piperidyl]methyl]cyclohexyl]-7-isopropoxy-imidazo[1,2-a]pyridin-6-yl]-6-(trifluoromethyl)pyridine-2-carboxamide]
100 to 500 | CC(C)Oc1cc2nc(C3CCN(CC(=O)N4CCN(c5ccc6c(N7CCC(=O)NC7=O)nn(C)c6c5)CC4)CC3)cn2cc1NC(=O)c1cccc(C(F)(F)F)n1 [Example 26, N-[2-[1-[2-[4-[3-(2,4-dioxohexahydropyrimidin-1-yl)-1-methyl-indazol-6-yl]piperazin-1-yl]-2-oxo-ethyl]-4-piperidyl]-7-isopropoxy-imidazo[1,2-a]pyridin-6-yl]-6-(trifluoromethyl)pyridine-2-carboxamide]
100 to 500 | CC(C)Oc1cc2nc(C3CCN(CC(=O)N4CCC(Oc5ccc(NC6CCC(=O)NC6=O)cc5)CC4)CC3)cn2cc1NC(=O)c1cccc(C(F)(F)F)n1 (stereo not drawn) [Example 86, N-[2-[1-[2-[4-[4-[(2,6-dioxo-3-piperidyl)amino]phenoxy]-1-piperidyl]-2-oxo-ethyl]-4-piperidyl]-7-isopropoxy-imidazo[1,2-a]pyridin-6-yl]-6-(trifluoromethyl)pyridine-2-carboxamide]
100 to 500 | CC(C)Oc1cc2nc([C@H]3CC[C@H](CN(C)C4CCN(c5cccc(NC6CCC(=O)NC6=O)c5)CC4)CC3)cn2cc1NC(=O)c1cccc(C(F)(F)F)n1 (stereo partly drawn) [Example 44, N-[2-[4-[[[1-[3-[(2,6-dioxo-3-piperidyl)amino]phenyl]-4-piperidyl]-methyl-amino]methyl]cyclohexyl]-7-isopropoxy-imidazo[1,2-a]pyridin-6-yl]-6-(trifluoromethyl) pyridine-2-carboxamide]
100 to 500 | CC(C)Oc1cc2nc(C3CCN(C(=O)CCC4CCN(C(=O)c5ccc(OC6CCC(=O)NC6=O)cc5)CC4)CC3)cn2cc1NC(=O)c1cccc(C(F)(F)F)n1 (stereo not drawn) [Example 81, N-[2-[1-[3-[1-[4-[(2,6-dioxo-3-piperidyl)oxy]benzoyl]-4-piperidyl]propanoyl]-4-piperidyl]-7-isopropoxy-imidazo[1,2-a]pyridin-6-yl]-6-(trifluoromethyl)pyridine-2-carboxamide]
100 to 500 | CC(C)Oc1cc2nc([C@H]3CC[C@H](CN4CCC(c5cccc(NC6CCC(=O)NC6=O)c5F)CC4)CC3)cn2cc1NC(=O)c1cccc(C(F)(F)F)n1 (stereo partly drawn) [Example 38, N-[2-[4-[[4-[3-[(2,6-dioxo-3-piperidyl)amino]-2-fluoro-phenyl]-1-piperidyl]methyl]cyclohexyl]-7-isopropoxy-imidazo[1,2-a]pyridin-6-yl]-6-(trifluoromethyl)pyridine-2-carboxamide]
10 to 100 | CC(C)Oc1cc2nc(C3CCN(CC(=O)N4CCC(c5ccc(NC6CCC(=O)NC6=O)cc5)CC4)CC3)cn2cc1NC(=O)c1ccc(F)cc1F (stereo not drawn) [Example 59, N-(2-(1-(2-(4-(4-((2,6-dioxopiperidin-3-yl)amino)phenyl)piperidin-1-yl)-2-oxoethyl)piperidin-4-yl)-7-isopropoxyimidazo[1,2-a]pyridin-6-yl)-2,4-difluorobenzamide]
100 to 500 | CC(C)Oc1cc2nc([C@H]3CC[C@H](CN4CCC(c5ccc(C6CCC(=O)NC6=O)cc5F)CC4)CC3)cn2cc1NC(=O)c1cccc(C(F)(F)F)n1 (stereo partly drawn) [Example 41, N-[2-[4-[[4-[4-(2,6-dioxo-3-piperidyl)-2-fluoro-phenyl]-1-piperidyl]methyl]cyclohexyl]-7-isopropoxy-imidazo[1,2-a]pyridin-6-yl]-6-(trifluoromethyl)pyridine-2-carboxamide]
100 to 500 | CC(C)Oc1cc2nc(C3CCN(CC(=O)N4CCN(Cc5ccc(NC6CCC(=O)NC6=O)cc5)CC4)CC3)cn2cc1NC(=O)c1cccc(C(F)(F)F)n1 (stereo not drawn) [Example 20, N-[2-[1-[2-[4-[[4-[(2,6-dioxo-3-piperidyl)amino]phenyl]methyl]piperazin-1-yl]-2-oxo-ethyl]-4-piperidyl]-7-isopropoxy-imidazo[1,2-a]pyridin-6-yl]-6-(trifluoromethyl) pyridine-2-carboxamide]
10 to 100 | CC(C)Oc1cc2nc(C3CCN(CC(=O)N4CCN(CCc5ccc(NC6CCC(=O)NC6=O)cc5)CC4)CC3)cn2cc1NC(=O)c1cccc(C(F)(F)F)n1 (stereo not drawn) [Example 19, N-[2-[1-[2-[4-[2-[4-[(2,6-dioxo-3-piperidyl)amino]phenyl]ethyl]piperazin-1-yl]-2-oxo-ethyl]-4-piperidyl]-7-isopropoxy-imidazo[1,2-a]pyridin-6-yl]-6-(trifluoromethyl) pyridine-2-carboxamide]
100 to 500 | CC(C)Oc1cc2nc([C@H]3CC[C@H](CN(C)C4CCN(c5ccc(C6CCC(=O)NC6=O)cc5)CC4)CC3)cn2cc1NC(=O)c1cccc(C(F)(F)F)n1 (stereo partly drawn) [Example 40, N-[2-[4-[[[1-[4-(2,6-dioxo-3-piperidyl)phenyl]-4-piperidyl]-methyl-amino]methyl]cyclohexyl]-7-isopropoxy-imidazo[1,2-a]pyridin-6-yl]-6-(trifluoromethyl)pyridine-2-carboxamide]
10 to 100 | CC(C)Oc1cc2nc(C3CCN(CC(=O)N4CCC(c5ccc(NC6CCC(=O)NC6=O)cc5)CC4)CC3)cn2cc1NC(=O)c1cccc(C(F)(F)F)n1 (stereo not drawn) [Example 23, N-[2-[1-[2-[4-[4-[(2,6-dioxo-3-piperidyl)amino]phenyl]-1-piperidyl]-2-oxo-ethyl]-4-piperidyl]-7-isopropoxy-imidazo[1,2-a]pyridin-6-yl]-6-(trifluoromethyl)pyridine-2-carboxamide]
100 to 500 | CC(C)Oc1cc2nc(C3CCN(CCN4CCC(c5ccc(C6CCC(=O)NC6=O)cc5F)CC4)CC3)cn2cc1NC(=O)c1cccc(C(F)(F)F)n1 (stereo not drawn) [Example 64, N-[2-[1-[2-[4-[4-(2,6-dioxo-3-piperidyl)-2-fluoro-phenyl]-1-piperidyl]ethyl]-4-piperidyl]-7-isopropoxy-imidazo[1,2-a]pyridin-6-yl]-6-(trifluoromethyl)pyridine-2-carboxamide]
